# In ChEMBL document CHEMBL3217486, “Novel indolizine compounds as potent inhibitors of phosphodiesterase IV (PDE4): structureactivity relationship” (Medchemcomm, 2011):
# Target: Phosphodiesterase 4 (Homo sapiens, UniProt P27815+Q08499+Q07343+Q08493)
# Assay: Inhibition of PDE4 isolated from human U937 cells using [3H]-cAMP as substrate after 30 mins by liquid scintillation counting analysis
# Type: cell-free
# Conditions: u-937
row,IC50 [µM],Compound
1,0.414,O=C(Nc1cccnc1)C(=O)c1cc(Cc2ccc(F)cc2)n2ccc(O)cc12
2,0.239,O=C(Nc1cccnc1)C(=O)c1cc(Cc2ccc(F)cc2)n2ccc(Cl)cc12
3,0.015,O=C(Nc1c(Cl)cncc1Cl)C(=O)c1cc(Cc2ccc(O)cc2)n2ccccc12
4,0.026,O=C(Nc1c(Cl)cncc1Cl)C(=O)c1cc(Cc2ccc(Cl)cc2)n2ccc(Cl)cc12
5,0.028,O=C(Nc1c(Cl)cncc1Cl)C(=O)c1cc(Cc2ccc(F)cc2)n2ccc(Cl)cc12
6,0.013,O=C(Nc1c(Cl)cncc1Cl)C(=O)c1cc(Cc2ccc(F)cc2)n2ccc(F)cc12
7,0.002,O=C(Nc1c(Cl)cncc1Cl)C(=O)c1cc(Cc2ccc(O)cc2)n2ccc(Cl)cc12
8,0.012,COc1ccc(Cc2cc(C(=O)C(=O)Nc3c(Cl)cncc3Cl)c3cc(Cl)ccn23)cc1
9,0.082,N#Cc1ccc(Cc2cc(C(=O)C(=O)Nc3c(Cl)cncc3Cl)c3cc(Cl)ccn23)cc1
10,0.054,O=C(Nc1c(Cl)c[n+]([O-])cc1Cl)C(=O)c1cc(Cc2ccc(F)cc2)n2ccc(Cl)cc12
11,0.018,O=C(Nc1c(Cl)c[n+]([O-])cc1Cl)C(=O)c1cc(Cc2ccc(F)cc2)n2ccc(F)cc12
12,0.019,O=C(Nc1c(Cl)c[n+]([O-])cc1Cl)C(=O)c1cc(Cc2ccc(Cl)cc2)n2ccccc12
13,0.08,COc1ccc(Cc2cc(C(=O)C(=O)Nc3c(Cl)c[n+]([O-])cc3Cl)c3ccccn23)cc1
14,0.029,O=C(Nc1c(Cl)c[n+]([O-])cc1Cl)C(=O)c1cc(Cc2ccc(O)cc2)n2ccccc12
15,10,O=C(Nc1c(Cl)cccc1Cl)C(=O)c1cc(Cc2ccc(F)cc2)n2ccccc12
16,10,O=C(Nc1c(Cl)cc(C(F)(F)F)cc1Cl)C(=O)c1cc(Cc2ccc(F)cc2)n2ccccc12
17,0.029,O=C(Nc1c(Cl)c[n+]([O-])cc1Cl)C(=O)c1cc(Cc2ccc(F)cc2)c2ccccn12

# More lines, now with the values behind:
row,Compound,IC50 [µM]
1,O=C(Nc1cccnc1)C(=O)c1cc(Cc2ccccc2)n2ccccc12,0.348
2,O=C(Nc1cccnc1)C(=O)c1cc(Cc2ccc(F)cc2)n2ccccc12,0.341
3,O=C(Nc1cccnc1)C(=O)c1cc(Cc2ccc(Cl)cc2)n2ccccc12,0.165
4,COc1ccc(Cc2cc(C(=O)C(=O)Nc3cccnc3)c3ccccn23)cc1,0.447
5,O=C(Nc1cccnc1)C(=O)c1cc(Cc2ccc(O)cc2)n2ccccc12,0.327
6,O=C(Nc1cccnc1)C(=O)c1cc(Cc2ccc([N+](=O)[O-])cc2)n2ccccc12,0.569
7,Nc1ccc(Cc2cc(C(=O)C(=O)Nc3cccnc3)c3ccccn23)cc1,0.824
8,N#Cc1ccc(Cc2cc(C(=O)C(=O)Nc3cccnc3)c3ccccn23)cc1,0.719
9,O=C(Nc1cccnc1)C(=O)c1cc(Cc2ccc(C(F)(F)F)cc2)n2ccccc12,0.372
10,CC(C)c1ccc(Cc2cc(C(=O)C(=O)Nc3cccnc3)c3ccccn23)cc1,0.362
11,COc1ccn2c(Cc3ccc(Cl)cc3)cc(C(=O)C(=O)Nc3cccnc3)c2c1,1
12,N#Cc1ccc(Cc2cc(C(=O)C(=O)Nc3cccnc3Cl)c3ccccn23)cc1,4.7
13,O=C(Nc1c(Cl)ccnc1Cl)C(=O)c1cc(Cc2ccc(Cl)cc2)n2ccccc12,0.084
14,N#Cc1ccc(Cc2cc(C(=O)C(=O)Nc3c(Cl)ccnc3Cl)c3ccccn23)cc1,0.25
15,O=C(Nc1c(Br)ccnc1Br)C(=O)c1cc(Cc2ccc(F)cc2)n2ccccc12,10
16,COc1ccnc(OC)c1NC(=O)C(=O)c1cc(Cc2ccc(C#N)cc2)n2ccccc12,10
17,COc1ccc(NC(=O)C(=O)c2cc(Cc3ccc(C#N)cc3)n3ccccc23)cn1,1.5
18,N#Cc1ccc(Cc2cc(C(=O)C(=O)Nc3c(Cl)cncc3Cl)c3ccccn23)cc1,0.116
19,O=C(Nc1c(Cl)cncc1Cl)C(=O)c1cc(Cc2ccc(Cl)cc2)n2ccccc12,0.016
20,COc1ccc(Cc2cc(C(=O)C(=O)Nc3c(Cl)cncc3Cl)c3ccccn23)cc1,0.04
21,O=C(Nc1c(Cl)cncc1Cl)C(=O)c1cc(Cc2ccc(F)cc2)c2ccccn12,0.006
22,O=C(Nc1c(Cl)cncc1Cl)C(=O)c1cn(Cc2ccc(F)cc2)c2ccc(O)cc12 [AWD-12-281],0.014
